{"source": "patent US11975005B2", "about": "“Treatment of respiratory diseases” (TIANLI BIOTECH PTY LTD, priority 2015, dated 2024)", "key": {"[1]": {"test_system": "RSV", "experiment": "RSV infection in Balb/C mice, PF670462 on days 3, 4 and 5", "type": "in vivo"}, "[2]": {"test_system": "human parenchymal fibroblasts", "experiment": "TGFβ-induced fibrogenic gene expression in human parenchymal lung fibroblasts", "type": "cell-based", "text": "Experiments described in the current Example and Example 14 involved culture of human parenchymal fibroblasts, measurement of their proliferation and gene expression response, the methods for which are detailed in Schuliga et al 2009 (Am J Respir Cell Mol Biol. 2009; 41(6):731-41).\nThe investigation of fibrogenesis may be undertaken in in vivo models typically using rodents. However, differences in behavior of cell types and species differences in protein structures and signaling systems create some limitations in the predictive value of such models. Additional valuable evidence of impacts on fibrogenesis can be obtained from the use of human fibroblasts isolated from the parenchyma and maintained in cell culture (Schuliga et al. (2009) Am J Respir Cell Mol Biol 41(6):731-741; Westergren-Thorsson et al. (2004) Int J Biochem Cell Biol 36(8): 1573-1584).\nThe data shown is for parenchymal lung fibroblasts from both patients with the pulmonary fibrotic disease, idiopathic pulmonary fibrosis (IPF) and those derived samples of non-IPF donors. […] Colla is a subunit of the fibrillar type collagen that is deposited in excess in the extracellular matrix in fibrotic lesions.\nFIG. 15B was performed in the same manner as for FIG. 15A except that in this experiment the fibroblasts are cultured as a suspended spheroid, rather than in 2D monolayer culture."}, "[3]": {"details": "Mock-treated mice, PF670462 ip, RT-qPCR"}, "[4]": {"details": "female Balb/C mice inoculated with RSV, Dex 1 mg/kg (i.p.)/day from day 1, PF670462 30 mg/kg days 3, 4 and 5"}}, "data": [{"compound": "Nc1nccc(-c2c(-c3ccc(F)cc3)ncn2C2CCCCC2)n1", "note": "[PF670462]", "values": [{"measurement": "expression of CXCL5", "setting": "[1]; FIG. 8B, during RSV infection", "result": "no effect alone"}, {"measurement": "expression of KC", "setting": "[1]; FIG. 8B, during RSV infection", "result": "no effect alone"}, {"measurement": "expression of TNFα", "setting": "[1]; FIG. 8B, during RSV infection", "result": "no effect alone"}, {"measurement": "IFN expression (IFNα, IFNβ and IFNγ)", "setting": "[1]; FIG. 8C, RSV treated mice, bronchoalveolar lavage cells and lung tissue, PF670462 given with Dex", "result": "prevented"}, {"measurement": "expression of GILZ in lung tissue", "setting": "[1]; [3]", "result": "directly stimulates"}, {"measurement": "expression of MKP1 in lung tissue", "setting": "[1]; [3]", "result": "neither Dex nor PF670462 alone increased expression"}, {"measurement": "expression of ZBTB16 in lung tissue", "setting": "[1]; [3]", "result": "directly stimulates"}, {"measurement": "bronchoalveolar lavage fluid (BALF) cellular content", "setting": "[1]; [4]", "result": "no effect"}, {"measurement": "bronchoalveolar lavage fluid (BALF) protein content", "setting": "[1]; [4]", "result": "no effect"}, {"measurement": "TGFβ induction of Col1a (collagen 1A) expression", "setting": "[2]; 2D monolayer fibroblasts from IPF and non-IPF donors, TGFβ 24 hour, 3 μM", "result": "significantly suppressed"}, {"measurement": "TGFβ-induced collagen 1A expression in IPF fibroblasts cultured as suspended spheroid", "setting": "[2]; FIG. 15B, 3 μM", "result": "inhibits"}, {"measurement": "TGFβ-induced collagen 1A increase in non-IPF derived cultures as suspended spheroid", "setting": "[2]; FIG. 15B, 3 μM", "result": "not signficantly affected"}, {"measurement": "fibrogenic actions of TGFβ (FIGS. 15A-C, collagen 1A and CTGF)", "setting": "[2]; IPF or non-IPF donors, 2D or 3D", "result": "inhibited"}]}]}
